Experimental data as given in ChEMBL document CHEMBL4152251, “Lactam hybrid analogues of solonamide B and autoinducing peptides as potent S. aureus AgrC antagonists” (Eur J Med Chem, 2018).
Activity calls are given as the source filed them. No cut-off for these calls is given here. Bridge positions count the residues as written; N and C are the ends. Square brackets hold non-standard residues; d marks the D form. Peptide text beside a SMILES is read from it. * marks the point of attachment. Decanoyl(3,6,9-trioxa) = COCCOCCOCC(=O)*; Decanoyl = CCCCCCCCCC(=O)*; Heptanoyl = CCCCCCC(=O)*; Orn = NCCC[C@H](N)C(=O)O; Dab = NCC[C@H](N)C(=O)O; Dap = NC[C@H](N)C(=O)O

What was measured:
[1] = biological target: T1, Receptor-histidine kinase AgrC (Staphylococcus aureus) (UniProt O07911); assay: Inhibition of AIP-stimulated quorum sensing system AgrC activation in Staphylococcus aureus RN10829 harboring P3:blaZ fusion assessed as reduction in beta-lactamse activity at 5 ug/ml preincubated with organism followed by AIP addition measured after 45 mins by nitrocefin hydrolysis assay
T1 sequence (whole entry): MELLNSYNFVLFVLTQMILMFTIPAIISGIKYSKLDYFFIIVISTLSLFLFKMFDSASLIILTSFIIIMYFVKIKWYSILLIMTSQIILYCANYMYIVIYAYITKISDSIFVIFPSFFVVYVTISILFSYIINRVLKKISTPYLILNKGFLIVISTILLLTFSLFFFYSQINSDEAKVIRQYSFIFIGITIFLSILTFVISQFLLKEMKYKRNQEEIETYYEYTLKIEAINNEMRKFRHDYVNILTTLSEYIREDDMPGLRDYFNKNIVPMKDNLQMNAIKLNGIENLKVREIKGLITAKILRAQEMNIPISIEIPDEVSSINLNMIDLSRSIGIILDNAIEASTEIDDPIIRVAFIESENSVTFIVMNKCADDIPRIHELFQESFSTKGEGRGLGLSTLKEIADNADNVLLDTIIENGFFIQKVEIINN

[2] = biological target: T2, Receptor-histidine kinase AgrC (Staphylococcus aureus, UniProt O07911); assay: Inhibition of AIP-stimulated quorum sensing system AgrC activation in Staphylococcus aureus RN10829 harboring P3:blaZ fusion assessed as reduction in beta-lactamse activity preincubated with organism followed by AIP addition measured after 45 mins by nitrocefin hydrolysis assay
T2 sequence (O07911 whole entry): T1 sequence (whole entry)

Row | SMILES | inhibition [1] | IC50 [2] [nM]
1 | CCCCCCC(=O)N[C@@H]1CNC(=O)[C@@H](CC(C)C)NC(=O)CNC(=O)[C@@H](CC(C)C)NC(=O)[C@@H](Cc2ccccc2)NC1=O | inactive | 
2 | CCCCCCC(=O)N[C@@H]1CNC(=O)[C@@H](Cc2ccccc2)NC(=O)[C@@H](C)NC(=O)[C@@H](CC(C)C)NC(=O)[C@@H](CC(C)C)NC1=O | inactive | 
3 | CCCCCCC(=O)N[C@@H]1CNC(=O)[C@@H](CC(C)C)NC(=O)[C@@H](C)NC(=O)[C@@H](C)NC(=O)[C@@H](Cc2ccccc2)NC1=O | Active | 
4 | CCCCCCC(=O)N[C@@H]1CNC(=O)[C@@H](C)NC(=O)[C@@H](C)NC(=O)[C@@H](CC(C)C)NC(=O)[C@@H](Cc2ccccc2)NC1=O | Active | 69100
5 | CCCCCCC(=O)N[C@@H]1CNC(=O)[C@@H](CC(C)C)NC(=O)[C@@H](C)NC(=O)[C@@H](CC(C)C)NC(=O)[C@@H](CCc2ccccc2)NC1=O | inactive | 
6 | CCCCCCC(=O)N[C@@H]1CNC(=O)[C@@H](CC(C)C)NC(=O)[C@@H](C)NC(=O)[C@@H](CC(C)C)NC(=O)[C@@H](Cc2ccccc2)NC1=O | Active | 622
7 | CCCCCCC(=O)N[C@H]1CNC(=O)[C@H](CC(C)C)NC(=O)[C@H](C)NC(=O)[C@H](CC(C)C)NC(=O)[C@H](Cc2ccccc2)NC1=O | Active | 19100
8 | CCCCCCC(=O)N[C@@H]1CNC(=O)[C@@H](CC(C)C)NC(=O)[C@@H](C)NC(=O)[C@@H](Cc2ccccc2)NC(=O)[C@@H](Cc2ccccc2)NC1=O | Active | 739
9 | CCCCCCC(=O)N[C@@H]1CNC(=O)[C@@H](CC(C)C)NC(=O)[C@H](C)NC(=O)[C@H](CC(C)C)NC(=O)[C@@H](Cc2ccccc2)NC1=O | inactive | 
10 | CCCCCCC(=O)N[C@H]1CNC(=O)[C@H](Cc2ccccc2)NC(=O)[C@H](C)NC(=O)[C@H](CC(C)C)NC(=O)[C@H](CC(C)C)NC1=O | Active | 
11 | CCCCCCCCCCCC(=O)N[C@@H]1CNC(=O)[C@@H](CC(C)C)NC(=O)[C@@H](C)NC(=O)[C@@H](CC(C)C)NC(=O)[C@@H](Cc2ccccc2)NC1=O | Active | 
12 | CCCCCCC(=O)N[C@@H]1CNC(=O)[C@@H](CC(C)C)NC(=O)[C@@H](C)NC(=O)[C@@H](CC(C)C)NC(=O)[C@@H](Cc2cccc3ccccc23)NC1=O | inactive | 
13 | CCCCCCCCCC(=O)N[C@H]1CNC(=O)[C@H](CC(C)C)NC(=O)[C@H](C)NC(=O)[C@H](CC(C)C)NC(=O)[C@H](Cc2ccccc2)NC1=O (Decanoyl-[Dap]FLAL; lactam 1-C) | Active | 
14 | CCCCCCC(=O)N[C@@H]1CNC(=O)[C@@H](CC(C)C)NC(=O)[C@@H](CC(C)C)NC(=O)[C@@H](CC(C)C)NC(=O)[C@@H](Cc2ccccc2)NC1=O | inactive | 
15 | CCCCCCC(=O)N[C@H]1CCNC(=O)[C@H](CC(C)C)NC(=O)[C@H](C)NC(=O)[C@H](CC(C)C)NC(=O)[C@H](Cc2ccccc2)NC1=O (Heptanoyl-[Dab]FLAL; lactam 1-C) | inactive | 
16 | CCCCCCC(=O)N[C@@H]1CNC(=O)[C@@H](CC(C)C)NC(=O)[C@@H](C)NC(=O)[C@@H](CC(C)C)NC(=O)[C@@H](C)NC1=O | Active | 
17 | CCCCCCC(=O)N[C@@H]1CNC(=O)[C@@H](CC(C)C)NC(=O)[C@@H](C)NC(=O)[C@@H](CC(C)C)NC(=O)[C@@H](Cc2c[nH]c3ccccc23)NC1=O | inactive | 
18 | CCCCCCC(=O)N[C@H]1CNC(=O)[C@H](CC(C)C)NC(=O)[C@@H](C)NC(=O)[C@@H](CC(C)C)NC(=O)[C@H](Cc2ccccc2)NC1=O | inactive | 
19 | CCCCCCC(=O)N[C@@H]1CNC(=O)[C@@H](CCC(C)C)NC(=O)[C@@H](C)NC(=O)[C@@H](CC(C)C)NC(=O)[C@@H](Cc2ccccc2)NC1=O | Active | 913
20 | COCCOCCOCC(=O)N[C@H]1CNC(=O)[C@H](CC(C)C)NC(=O)[C@H](C)NC(=O)[C@H](CC(C)C)NC(=O)[C@H](Cc2ccccc2)NC1=O ({Decanoyl(3,6,9-trioxa)}-[Dap]FLAL; lactam 1-C) | inactive | 
21 | CCCCCC(=O)N[C@@H]1CNC(=O)[C@@H](CC(C)C)NC(=O)[C@@H](C)NC(=O)[C@@H](CC(C)C)NC(=O)[C@@H](Cc2ccccc2)NC1=O | Active | 1430
22 | CC(=O)N[C@H]1CNC(=O)[C@H](CC(C)C)NC(=O)[C@H](C)NC(=O)[C@H](CC(C)C)NC(=O)[C@H](Cc2ccccc2)NC1=O (Ac-[Dap]FLAL; lactam 1-C) | inactive | 
23 | CCCCCCC(=O)N[C@H]1CCCCNC(=O)[C@H](CC(C)C)NC(=O)[C@H](C)NC(=O)[C@H](CC(C)C)NC(=O)[C@H](Cc2ccccc2)NC1=O (Heptanoyl-KFLAL; lactam 1-C) | inactive | 
24 | CCCCCCC(=O)N[C@@H]1CNC(=O)[C@@H](CC(C)C)NC(=O)[C@@H](C)NC(=O)[C@@H](CCC(C)C)NC(=O)[C@@H](Cc2ccccc2)NC1=O | Active | 609
25 | CC(=O)NCC(=O)NCC(=O)NCC(=O)N[C@H]1CNC(=O)[C@H](CC(C)C)NC(=O)[C@H](C)NC(=O)[C@H](CC(C)C)NC(=O)[C@H](Cc2ccccc2)NC1=O (Ac-GGG[Dap]FLAL; lactam 4-C) | inactive | 
26 | CCCCCCCC(=O)N[C@@H]1CNC(=O)[C@@H](CC(C)C)NC(=O)[C@@H](C)NC(=O)[C@@H](CC(C)C)NC(=O)[C@@H](Cc2ccccc2)NC1=O | Active | 457
27 | CCCCCCC(=O)N[C@H]1CCCNC(=O)[C@H](CC(C)C)NC(=O)[C@H](C)NC(=O)[C@H](CC(C)C)NC(=O)[C@H](Cc2ccccc2)NC1=O (Heptanoyl-[Orn]FLAL; lactam 1-C) | inactive | 
